Counter-ions that a name gives are not always drawn. Like-named read-outs stand apart in the source and are kept apart here.
Legend:
[1] = target: T1, SARS-CoV-2 PLpro (nsp3 1564–1878) (Severe acute respiratory syndrome coronavirus 2, UniProt P0DTD1); test: biochemical; parameters: FRET-quenched peptide (Pro3) cleavage by PLpro, 10 min pre-incubation, slope over 20 min, normalised to no-compound control; details: low concentration screen, read-out: % of control remaining
[2] = target: T1, SARS-CoV-2 PLpro (nsp3 1564–1878); test: biochemical; parameters: FRET-quenched peptide (Pro3) cleavage by PLpro, 10 min pre-incubation, slope over 20 min, normalised to no-compound control; details: high concentration screen, read-out: % of control remaining

CO/N=C(\C(=O)N[C@@H]1C(=O)N2C(C(=O)O)=C(CSc3nc(=O)c(O)nn3C)CS[C@H]12)c1csc(N)n1 [Ceftriaxone sodium]
remaining activity at 1.25 µM ([1]; Well no.=132): 105% | remaining activity at 3.75 µM ([2]; Well no.=132): 105%

CC1=C(O)C(=O)C=C2C1=CC=C1[C@@]2(C)CC[C@@]2(C)[C@@H]3C[C@](C)(C(=O)O)CC[C@]3(C)CC[C@]12C [Celastrol]
remaining activity at 1.25 µM ([1]; Well no.=3430): 95.7% | remaining activity at 3.75 µM ([2]; Well no.=3430): 94.6%

Cc1ccc(-c2cc(C(F)(F)F)nn2-c2ccc(S(N)(=O)=O)cc2)cc1 [Celecoxib]
remaining activity at 1.25 µM ([1]; Well no.=1818): 88.6% | remaining activity at 3.75 µM ([2]; Well no.=1818): 88.2%

CCc1cc(-c2noc(-c3cc(OC)nc(C4CCCC4)c3)n2)cc(C)c1OC[C@@H](O)CO [Cenerimod]
remaining activity at 1.25 µM ([1]; Well no.=7052): 105% | remaining activity at 3.75 µM ([2]; Well no.=7052): 105%

CCCCOCCOc1ccc(-c2ccc3c(c2)/C=C(/C(=O)Nc2ccc([S@@+]([O-])Cc4cncn4CCC)cc2)CCCN3CC(C)C)cc1 [Cenicriviroc Mesylate]
remaining activity at 1.25 µM ([1]; Well no.=8311): 99.4% | remaining activity at 3.75 µM ([2]; Well no.=8311): 99.6%

CCCCOCCOc1ccc(-c2ccc3c(c2)/C=C(/C(=O)Nc2ccc([S@@+]([O-])Cc4cncn4CCC)cc2)CCCN3CC(C)C)cc1 [Cenicriviroc]
remaining activity at 1.25 µM ([1]; Well no.=8515): 104% | remaining activity at 3.75 µM ([2]; Well no.=8515): 105%

CN(C)CCOC(=O)COc1ccc(Cl)cc1 [Centrophenoxine hydrochloride]
remaining activity at 1.25 µM ([1]; Well no.=46): 103% | remaining activity at 3.75 µM ([2]; Well no.=46): 107%

CC1=C(C(=O)O)N2C(=O)[C@@H](NC(=O)[C@H](N)c3ccccc3)[C@H]2SC1 [Cephalexin hydrate]
remaining activity at 1.25 µM ([1]; Well no.=34): 95.4% | remaining activity at 3.75 µM ([2]; Well no.=34): 95.3%

C/C=C(\C)C(=O)N[C@@H](c1ccccc1)[C@@H](O)C(=O)O[C@H]1C[C@@]2(O)[C@@H](OC(=O)c3ccccc3)[C@@H]3[C@]4(OC(C)=O)CO[C@@H]4C[C@H](O)[C@@]3(C)C(=O)[C@H](OC(C)=O)C(=C1C)C2(C)C [Cephalomannine]
remaining activity at 1.25 µM ([1]; Well no.=5204): 97.2% | remaining activity at 3.75 µM ([2]; Well no.=5204): 99.1%

CC(=O)OCC1=C(C(=O)O)N2C(=O)[C@@H](NC(=O)Cc3cccs3)[C@H]2SC1 [Cephalothin sodium]
remaining activity at 1.25 µM ([1]; Well no.=224): 93.6% | remaining activity at 3.75 µM ([2]; Well no.=224): 96.4%

CC(=O)OCC1=C(C(=O)O)N2C(=O)[C@@H](NC(=O)CSc3ccncc3)[C@H]2SC1 [Cephapirin sodium]
remaining activity at 1.25 µM ([1]; Well no.=188): 101% | remaining activity at 3.75 µM ([2]; Well no.=188): 99.7%

COc1ccc2cc1Oc1ccc(cc1)C[C@H]1c3c(cc4c(c3Oc3cc5c(cc3OC)CCN(C)[C@@H]5C2)OCO4)CCN1C [Cepharanthine]
remaining activity at 1.25 µM ([1]; Well no.=3555): 102% | remaining activity at 3.75 µM ([2]; Well no.=3555): 106%

CC1=C(C(=O)O)N2C(=O)[C@@H](NC(=O)[C@H](N)C3=CCC=CC3)[C@H]2SC1 [Cephradine]
remaining activity at 1.25 µM ([1]; Well no.=236): 98.9% | remaining activity at 3.75 µM ([2]; Well no.=236): 100%

COCc1c(C(C)C)nc(C(C)C)c(/C=C/[C@@H](O)C[C@@H](O)CC(=O)O)c1-c1ccc(F)cc1 [Cerivastatin]
remaining activity at 1.25 µM ([1]; Well no.=1571): 91.1% | remaining activity at 3.75 µM ([2]; Well no.=1571): 93.5%

C/C=C/C/C=C/CCC(=O)[C@H]1O[C@H]1C(N)=O [Cerulenin]
remaining activity at 1.25 µM ([1]; Well no.=3137): 93% | remaining activity at 3.75 µM ([2]; Well no.=3137): 102%

O=C(O)COCCN1CCN(C(c2ccccc2)c2ccc(Cl)cc2)CC1 (stereo not shown) [Cetirizine 2HCl]
remaining activity at 1.25 µM ([1]; Well no.=1712): 96.2% | remaining activity at 3.75 µM ([2]; Well no.=1712): 98.8%

O=C(O)COCCN1CCN(C(c2ccccc2)c2ccc(Cl)cc2)CC1 (stereo not shown) [Cetirizine (dihydrochloride)]
remaining activity at 1.25 µM ([1]; Well no.=7325): 104% | remaining activity at 3.75 µM ([2]; Well no.=7325): 103%

C/C=C(/C)C(=O)O[C@H]1CC[C@@]2(C)[C@@H]3CC[C@H]4[C@]5(O)C[C@H](O)[C@@]6(O)[C@@H](CN7C[C@@H](C)CC[C@H]7[C@@]6(C)O)[C@]5(O)C[C@@]42O[C@]13O [Cevadine]
remaining activity at 1.25 µM ([1]; Well no.=3139): 103% | remaining activity at 3.75 µM ([2]; Well no.=3139): 102%

C[C@@H]1O[C@@]2(CS1)CN1CCC2CC1 [Cevimeline (hydrochloride hemihydrate)]
remaining activity at 1.25 µM ([1]; Well no.=7571): 91.5% | remaining activity at 3.75 µM ([2]; Well no.=7571): 90.9%

CC(CN(C)C)NC(=O)c1cccc2[nH]c(-c3ccncc3)nc12 (stereo not shown) [ChX710]
remaining activity at 1.25 µM ([1]; Well no.=8551): 108% | remaining activity at 3.75 µM ([2]; Well no.=8551): 101%
